The record followed here is patent publication US7202213B2 (Novo Nordisk A/S, priority 2000, dated 2007).

The target in one assay is T1, human PPAR γ (Homo sapiens, UniProt P37231).
T1 construct: PPARα: aa 167-C-terminus; PPARγ: aa 165-C-terminus; expressed in transfected cells; host or cells: HEK293
T1 sequence (P37231 165-477 isoform P37231-2): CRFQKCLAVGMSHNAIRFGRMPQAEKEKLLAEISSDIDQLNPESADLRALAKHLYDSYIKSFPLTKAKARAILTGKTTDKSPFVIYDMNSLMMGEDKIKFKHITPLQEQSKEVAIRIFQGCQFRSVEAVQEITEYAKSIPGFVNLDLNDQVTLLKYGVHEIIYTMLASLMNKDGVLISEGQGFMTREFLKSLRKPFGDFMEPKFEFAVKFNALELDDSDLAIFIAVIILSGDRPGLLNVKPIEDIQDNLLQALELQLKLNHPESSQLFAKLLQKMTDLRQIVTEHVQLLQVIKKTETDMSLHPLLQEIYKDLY
The assay can be described thus: In vitro PPAR gamma transactivation assay (GAL4-DBD-PPAR-LBD luciferase reporter in HEK293 cells). Type of assay: cell-based. As to conditions: for EC50: HEK293 cells, 24 h with compound, five concentrations 0.01 to 30 μM, means of at least three experiments, read-out: In vitro activation PPAR γ EC50; for In vitro activation PPAR γ % max: fold activation relative to maximum activation obtained with rosiglitazone (approx. […] fold corresponded to 100%). The source says:
(§1) The PPAR gene transcription activation assays were based on transient transfection into human HEK293 cells of two plasmids encoding a chimeric test protein and a reporter protein respectively. The chimeric test protein was a fusion of the DNA binding domain (DBD) from the yeast GAL4 transcription factor to the ligand binding domain (LBD) of the human PPAR proteins. The PPAR LBD harbored in addition to the ligand binding pocket also the native activation domain (activating function 2=AF2) allowing the fusion protein to function as a PPAR ligand dependent transcription factor. The GAL4 DBD will force the fusion protein to bind only to Gal4 enhancers (of which none existed in HEK293 cells). The reporter plasmid contained a Gal4 enhancer driving the expression of the firefly luciferase protein. After transfection, HEK293 cells expressed the GAL4-DBD-PPAR-LBD fusion protein. The fusion protein will in turn bind to the Gal4 enhancer controlling the luciferase expression, and do nothing in the absence of ligand. Upon addition to the cells of a PPAR ligand, luciferase protein will be produced in amounts corresponding to the activation of the PPAR protein. The amount of luciferase protein is measured by light emission after addition of the appropriate substrate.
(§2) Cell culture and transfection: HEK293 cells were grown in DMEM+10% FCS. Cells were seeded in 96-well plates the day before transfection to give a confluency of 50–80% at transfection. A total of 0,8 μg DNA containing 0,64 μg pM1α/γLBD, 0,1 μg pCMVβGal, 0,08 μg pGL2Gal4DBD and 0,02 μg p[…] was transfected per well using FuGene transfection reagent according to the manufacturers instructions (Roche). Cells were allowed to express protein for 48 h followed by addition of compound.
(§3) Plasmids: Human PPAR α and γ was obtained by PCR amplification using cDNA synthesized by reverse transcription of mRNA from liver and adipose tissue respectively. Amplified cDNAs were cloned into pCR2.1 and sequenced. The ligand binding domain (LBD) of each PPAR isoform was generated by PCR(PPARα: aa 167-C-terminus; PPARγ: aa 165-C-terminus) and fused to the DNA binding domain (DBD) of the yeast transcription factor GAL4 by subcloning fragments in frame into the vector pM1 generating the plasmids pM1αLBD and pM1γLBD. Ensuing fusions were verified by sequencing.
(§4) Luciferase assay: Medium including test compound was aspirated and 100 μl PBS incl. 1 mM Mg++ and Ca++ was added to each well. The luciferase assay was performed using the LucLite kit according to the manufacturers instructions (Packard Instruments). Light emission was quantified by counting SPC mode on a Packard Instruments top-counter. To measure β-galactosidase activity 25 μl supernatant from each transfection lysate was transferred to a new microplate. β-galactosidase assays were performed in the microwell plates using a kit from Promega and read in a microplate reader. The β-galactosidase data were used to normalize (transfection efficiency, cell growth etc.) the luciferase data.
(§5) Compounds: All compounds were dissolved in DMSO and diluted 1:1000 upon addition to the cells. Compounds were tested in quadruple in five concentrations ranging form 0.01 to 30 μM. Cells were treated with compound for 24 h followed by luciferase assay. Each compound was tested in three separate experiments. EC50 values were calculated via non-linear regression using GraphPad PRISM 3.02 (GraphPad Software, San Diego, Calif.). The results were expressed as means.
(§6) Compounds were tested in at least three separate experiments in five concentrations ranging from 0.01 to 30 μM.
(In a reporter assay the amount or activity of a reporter protein is the signal.)

The next assay addresses T2, human PPAR α (Homo sapiens, UniProt Q07869).
T2 construct: PPARα: aa 167-C-terminus; PPARγ: aa 165-C-terminus; expressed in transfected cells; host or cells: HEK293
T2 sequence (Q07869 167-468 limits assumed): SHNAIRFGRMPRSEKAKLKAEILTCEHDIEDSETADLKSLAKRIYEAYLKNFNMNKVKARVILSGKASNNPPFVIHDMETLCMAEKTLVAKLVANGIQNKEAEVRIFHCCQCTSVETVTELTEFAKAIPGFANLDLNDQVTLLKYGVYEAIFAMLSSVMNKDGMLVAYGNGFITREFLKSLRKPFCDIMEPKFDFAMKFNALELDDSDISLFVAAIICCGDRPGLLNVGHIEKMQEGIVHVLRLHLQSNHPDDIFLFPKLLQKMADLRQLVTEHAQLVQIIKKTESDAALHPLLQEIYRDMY
The assay can be described thus: In vitro PPAR alpha transactivation assay (GAL4-DBD-PPAR-LBD luciferase reporter in HEK293 cells). As to conditions: for EC50: HEK293 cells, 24 h with compound, five concentrations 0.01 to 30 μM, means of at least three experiments, read-out: In vitro activation PPAR α EC50; for In vitro activation PPAR α % max: fold activation relative to maximum activation obtained with Wy14643 (approx. 20 fold corresponded to 100%). Type of assay: cell-based.
Source text: as §1, §2, §3, §4, §5, §6

For orientation: EC50 means the concentration that produces a half-maximal response. On to `CCOC(Cc1ccc(OCC=C(C)C#Cc2cccc3ccccc23)cc1)C(=O)O` (stereo in doubt) [Example 18, (Z)-(S)-2-ethoxy-3-[4-(3-methyl-5-(1-naphthyl)-pent-2-en-4-ynyloxy)-phenyl]-propionic acid], for which, on human PPAR γ, the EC50 is 2670 nM and the “In vitro activation PPAR γ % max” value is given as 91%. Moreover, at human PPAR α, the EC50 was 160 nM and the “In vitro activation PPAR α % max” value amounted to 181%.

Turning to `CCO[C@@H](Cc1ccc(OC/C=C(\C)C#Cc2cc(Cl)cc(Cl)c2)cc1)C(=O)O` [Example 8, (E)-(S)-2-ethoxy-3-[4-(3-methyl-5-(3,5-dichloro-phenyl)-pent-2-en-4-ynyloxy)-phenyl]-propionic acid], on human PPAR γ, the EC50 is 310 nM and the “In vitro activation PPAR γ % max” value turned out to be 126%. Besides, on human PPAR α, the EC50 came out at 60 nM and the “In vitro activation PPAR α % max” value is given as 139%.

For `CCO[C@@H](Cc1ccc(OC/C=C(\C)C#Cc2cccc(C(F)(F)F)c2)cc1)C(=O)O` [Example 12, (E)-(S)-2-ethoxy-3-[4-(3-methyl-5-(3-trifluoromethyl-phenyl)-pent-2-en-4-ynyloxy)-phenyl]-propionic acid], at human PPAR γ, the EC50 is 340 nM and the “In vitro activation PPAR γ % max” value was determined as 105%. In addition, on human PPAR α, the EC50 was found to be 50 nM and the “In vitro activation PPAR α % max” value worked out at 195%.

As to `CCO[C@@H](Cc1ccc(OC/C=C/C#Cc2cc(Cl)cc(Cl)c2)cc1)C(=O)O` [Example 20, (E)-(S)-2-Ethoxy-3-[4-(5-(3,5-dichloro-phenyl)-pent-2-en-4-ynyloxy)-phenyl]-propionic acid], at human PPAR γ, the EC50 worked out at 1420 nM and the “In vitro activation PPAR γ % max” value turned out to be 112%. Further, on human PPAR α, the EC50 came out at 40 nM and the “In vitro activation PPAR α % max” value is 154%.

Consider `Cc1cccc(Nc2cc(Cl)nc(SCC(=O)O)n2)c1C` [Wy14643, reference compound], for which, on human PPAR α (reference maximum, corresponded to 100%), the “Maximum activation PPAR α (fold activation)” value was “approx. 20 fold”.
